According to PMC1568752 (Environmental Health Perspectives, 1985):

Assays:
[1] = test system: hepatic microsomal AHH and EROD; test: In vivo induction of rat hepatic microsomal AHH and EROD; conditions: 300 umole/kg, immature male Wistar rats (Figure 7)
DMAP N-demethylase = test: In vivo induction of rat hepatic microsomal DMAP N-demethylase; conditions: 300 umole/kg, immature male Wistar rats (Figure 7)
[2] = molecular target: T1, 2,3,7,8-TCDD hepatic cytosolic receptor protein (Rattus norvegicus, UniProt P41738); test: Competitive binding to the rat hepatic cytosolic 2,3,7,8-TCDD receptor protein; conditions: for competition with [3H]-2,3,7,8-TCDD for the receptor binding protein: dose-response competition experiments, at high concentrations
T1 sequence (P41738 10-853): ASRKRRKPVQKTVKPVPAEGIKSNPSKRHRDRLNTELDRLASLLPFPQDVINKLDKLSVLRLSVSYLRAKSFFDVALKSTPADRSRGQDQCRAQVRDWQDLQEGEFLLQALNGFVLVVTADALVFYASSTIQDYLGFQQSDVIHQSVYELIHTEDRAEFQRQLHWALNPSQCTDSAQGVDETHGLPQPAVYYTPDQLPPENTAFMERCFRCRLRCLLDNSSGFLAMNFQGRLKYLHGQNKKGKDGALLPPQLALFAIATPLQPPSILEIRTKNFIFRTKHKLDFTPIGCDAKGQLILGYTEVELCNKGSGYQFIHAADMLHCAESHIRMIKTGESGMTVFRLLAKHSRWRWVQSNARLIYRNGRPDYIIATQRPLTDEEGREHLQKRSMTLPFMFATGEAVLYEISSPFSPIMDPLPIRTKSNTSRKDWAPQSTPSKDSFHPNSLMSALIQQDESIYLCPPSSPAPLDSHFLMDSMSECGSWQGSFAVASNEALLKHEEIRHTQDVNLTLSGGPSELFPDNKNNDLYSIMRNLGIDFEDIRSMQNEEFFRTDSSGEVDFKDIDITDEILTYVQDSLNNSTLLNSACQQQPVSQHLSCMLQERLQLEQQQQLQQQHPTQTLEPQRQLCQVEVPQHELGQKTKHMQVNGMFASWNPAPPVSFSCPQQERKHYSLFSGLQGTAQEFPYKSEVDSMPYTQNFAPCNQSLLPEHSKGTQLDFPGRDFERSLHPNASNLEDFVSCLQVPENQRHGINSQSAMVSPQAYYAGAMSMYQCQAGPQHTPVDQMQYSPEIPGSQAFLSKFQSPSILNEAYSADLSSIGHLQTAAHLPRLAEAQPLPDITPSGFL

[3] = test system: aryl hydrocarbon hydroxylase (AHH) induction in rat hepatoma H-4-II-E cells; conditions: Table 1, PCB congeners; cited from earlier work
[4] = test system: ethoxyresorufin O-deethylase (EROD) induction in rat hepatoma H-4-II-E cells; conditions: Table 1, PCB congeners; cited from earlier work
rats = conditions: cited from earlier work
pullets = conditions: eggs from pullets receiving the PCB in their diet at 20 ppm; cited from earlier work
[5] = injected intraperitoneally on days 1 and 3, 150 umole/kg per injection in corn oil, killed on day 6

SMILES | in vivo induction of microsomal AHH and EROD [1] | in vivo induction of DMAP N-demethylase (DMAP N-demethylase) | -log EC50 AHH induction [3] | -log EC50 EROD induction [4] | further results
Fc1ccc(-c2cc(Cl)c(Cl)c(Cl)c2Cl)cc1 [X = F, 4'-Fluoro-2,3,4,5-tetrachlorobiphenyl] | significantly induced both | inducers | – | – | –
FC(F)(F)c1ccc(-c2ccc(C(F)(F)F)c(C(F)(F)F)c2)cc1 [3,4,4'-tritrifluoromethylbiphenyl] | – | – | – | – | competitive binding affinity for the receptor protein ([2]; displacement of [3H]-2,3,7,8-TCDD): unexpectedly low
Clc1cc2c(cc1Cl)Oc1cc(Cl)c(Cl)cc1O2 [TCDD, 2,3,7,8-tetrachlorodibenzo-p-dioxin, reference compound] | – | – | 10.02 | 10.10 | –
Clc1cc(-c2ccccc2)c(Cl)c(Cl)c1Cl [2,3,4,5-Tetra, 2,3,4,5-tetrachlorobiphenyl] | – | – | – | – | in vivo induction of the cytochrome P-450-dependent monooxygenases (AHH, EROD, DMAP N-demethylase) [1]: do not induce any; competition with [3H]-2,3,7,8-TCDD for the receptor binding protein [2]: some competition
Cc1ccc(-c2cc(Cl)c(Cl)c(Cl)c2Cl)cc1 [X = CH3, 4'-Methyl-2,3,4,5-tetrachlorobiphenyl] | – | – | – | – | in vivo induction of the cytochrome P-450-dependent monooxygenases (AHH, EROD, DMAP N-demethylase) [1]: do not induce any
Clc1ccc(-c2ccc(Cl)c(Cl)c2Cl)cc1 [2,3,4,4'-Tetra] | – | – | 4.96 | 5.72 | –
Clc1ccc(-c2cc(Cl)c(Cl)c(Cl)c2Cl)cc1Cl [2,3,3',4,4',5-Hexa, 2,3,3',4,4',5-hexachlorobiphenyl] | – | – | 5.68 | 6.05 | thymic atrophy (rats): thymic atrophy
Clc1cc(-c2ccc(I)cc2)c(Cl)c(Cl)c1Cl [X= I, 4'-Iodo-2,3,4,5-tetrachlorobiphenyl] | – | inactive | – | – | –
Clc1ccc(-c2cc(Cl)c(Cl)c(Cl)c2Cl)cc1 [2,3,4,4',5-Penta, 2,3,4,4',5-Pentachlorobiphenyl] | significantly induced both | inducers | 6.02 | 6.25 | –
CC(=O)c1ccc(-c2cc(Cl)c(Cl)c(Cl)c2Cl)cc1 [X = COCH3, 4'-Acetyl-2,3,4,5-tetrachlorobiphenyl] | – | – | – | – | in vivo induction of the cytochrome P-450-dependent monooxygenases (AHH, EROD, DMAP N-demethylase) [1]: do not induce any
Clc1ccc(-c2cc(Cl)c(Cl)cc2Cl)cc1Cl [2,3',4,4',5-Penta, 2,3',4,4',5-pentachlorobiphenyl] | – | – | 4.94 | 5.05 | embryo mortality (pullets): 100%; thymic atrophy (rats): thymic atrophy
Oc1ccc(-c2cc(Cl)c(Cl)c(Cl)c2Cl)cc1 [X = OH, 4'-Hydroxy-2,3,4,5-tetrachlorobiphenyl] | – | – | – | – | in vivo induction of the cytochrome P-450-dependent monooxygenases (AHH, EROD, DMAP N-demethylase) [1]: do not induce any
O=[N+]([O-])c1ccc(-c2cc(Cl)c(Cl)c(Cl)c2Cl)cc1 [NO2, 4'-Nitro-2,3,4,5-tetrachlorobiphenyl] | significantly induced both | inducers | – | – | –
Clc1ccc(-c2cc(Cl)c(Cl)c(Cl)c2)cc1Cl [3,3',4,4'5-Penta, 3,3',4,4',5-pentachlorobiphenyl] | – | – | 9.62 | 9.61 | –
FC(F)(F)c1ccc(-c2cc(Cl)c(Cl)c(Cl)c2Cl)cc1 [X = CF3, 4'-Trifluoromethyl-2,3,4,5-tetrachlorobiphenyl] | significantly induced both | inactive | – | – | –
Clc1cc(-c2ccc(Br)cc2)c(Cl)c(Cl)c1Cl [X = Br, 4'-Bromo-2,3,4,5-tetrachlorobiphenyl] | significantly induced both | inducers | – | – | –
CC(C)c1ccc(-c2cc(Cl)c(Cl)c(Cl)c2Cl)cc1 [X = i-C3H7, 4'-Isopropyl-2,3,4,5-tetrachlorobiphenyl] | significantly induced both | inactive | – | – | Residue levels in rat liver [5]: 1-4 ppm
CC(C)(C)c1ccc(-c2cc(Cl)c(Cl)c(Cl)c2Cl)cc1 [C(CH3)3, 4'-tert-butyl-2,3,4,5-tetrachlorobiphenyl] | significantly induced both | inactive | – | – | –
Clc1cc(Cl)c(-c2cc(Cl)c(Cl)cc2Cl)cc1Cl [2,2',4,4',5,5'-Hexa, 2,2',4,4',5,5'-hexachlorobiphenyl] | – | – | – | – | competition with [3H]-2,3,7,8-TCDD for the receptor binding protein [2]: some competition
Clc1cc(Cl)c(-c2cc(Cl)c(Cl)c(Cl)c2)cc1Cl [2,3',4,4',5,5'-Hexa] | – | – | 4.88 | 5.05 | –
Clc1ccc(-c2ccc(Cl)c(Cl)c2Cl)cc1Cl [2,3,3',4,4'-Penta, 2,3,3',4,4'-Pentachlorobiphenyl] | – | – | 7.06 | 6.92 | thymic atrophy (rats): thymic atrophy
Clc1cc(-c2ccc(-c3ccccc3)cc2)c(Cl)c(Cl)c1Cl [C6H5, 4'-Phenyl-2,3,4,5-tetrachlorobiphenyl] | significantly induced both | – | – | – | –
N#Cc1ccc(-c2cc(Cl)c(Cl)c(Cl)c2Cl)cc1 [X = CN, 4'-Cyano-2,3,4,5-tetrachlorobiphenyl] | significantly induced both | inducers | – | – | –
Clc1ccc(-c2ccc(Cl)c(Cl)c2)cc1Cl [3,3',4,4'-Tetra, 3,3',4,4'-tetrachlorobiphenyl] | – | – | 7.55 | 7.05 | –
Clc1ccc(-c2cc(Cl)c(Cl)c(Cl)c2)c(Cl)c1 [2',3,4,4',5-Penta] | – | – | 5.41 | 5.95 | –
Cc1ccc2cc3c(ccc4ccccc43)c3c2c1CC3 [3-MC, 3-methylcholanthrene, reference compound] | – | – | 5.89 | 6.20 | –
Clc1cc(-c2ccc(Cl)c(Cl)c2Cl)cc(Cl)c1Cl [2,3,3',4,4',5'-Hexa, 2,3,3',4,4',5'-hexachlorobiphenyl] | – | – | 6.15 | 5.90 | thymic atrophy (rats): thymic atrophy
